In brackets after ≈: the same amount, converted by molar mass.
Columns and labels:
Type in all cases: functional
Staphylococcus aureus [1] = test: Antibacterial activity against methicillin-susceptible Staphylococcus aureus clinical isolate by broth microdilution method
Staphylococcus aureus [2] = test: Antibacterial activity against methicillin-resistant Staphylococcus aureus clinical isolate by broth microdilution method
Staphylococcus aureus [3] = test: Antibacterial activity against glycopeptide-intermediate Staphylococcus aureus clinical isolate by broth microdilution method
[4] = system: Staphylococcus epidermidis; test: Antibacterial activity against methicillin-susceptible Staphylococcus epidermidis clinical isolate by broth microdilution method
Staphylococcus = test: Antibacterial activity against coagulase-negative Staphylococcus clinical isolate by broth microdilution method
Enterococcus faecalis [5] = test: Antibacterial activity against vancomycin-susceptible Enterococcus faecalis clinical isolate by broth microdilution method
Enterococcus faecalis [6] = test: Antibacterial activity against vancomycin-resistant Enterococcus faecalis clinical isolate by broth microdilution method
Enterococcus faecium [7] = test: Antibacterial activity against vancomycin-susceptible Enterococcus faecium clinical isolate by broth microdilution method
Enterococcus faecium [8] = test: Antibacterial activity against vancomycin-resistant Enterococcus faecium clinical isolate by broth microdilution method
Streptococcus pneumoniae [9] = test: Antibacterial activity against penicillin-susceptible Streptococcus pneumoniae clinical isolate by broth microdilution method
Streptococcus pneumoniae [10] = test: Antibacterial activity against penicillin-nonsusceptible Streptococcus pneumoniae clinical isolate by broth microdilution method
Streptococcus pyogenes [11] = test: Antibacterial activity against Streptococcus pyogenes clinical isolate by broth microdilution method
Listeria monocytogenes = test: Antibacterial activity against Listeria monocytogenes clinical isolate by broth microdilution method
Corynebacterium sp. = test: Antibacterial activity against Corynebacterium sp. by broth microdilution method
Neisseria sp. = test: Antibacterial activity against Neisseria sp. by broth microdilution method
Moraxella catarrhalis = test: Antibacterial activity against Moraxella catarrhalis clinical isolate by broth microdilution method
Haemophilus influenzae = test: Antibacterial activity against Haemophilus influenzae clinical isolate by broth microdilution method
Citrobacter koseri = test: Antibacterial activity against Citrobacter diversus clinical isolate by broth microdilution method
Citrobacter freundii = test: Antibacterial activity against Citrobacter freundii clinical isolate by broth microdilution method
Klebsiella aerogenes = test: Antibacterial activity against Enterobacter aerogenes clinical isolate by broth microdilution method
Enterobacter cloacae = test: Antibacterial activity against Enterobacter cloacae clinical isolate by broth microdilution method
Escherichia coli = test: Antibacterial activity against Escherichia coli clinical isolate by broth microdilution method
Klebsiella oxytoca = test: Antibacterial activity against Klebsiella oxytoca clinical isolate by broth microdilution method
Klebsiella pneumoniae [12] = test: Antibacterial activity against Klebsiella pneumoniae clinical isolate by broth microdilution method
Klebsiella pneumoniae [13] = test: Antibacterial activity against extended-spectrum beta-lactamase producing Klebsiella pneumoniae clinical isolate by broth microdilution method
Serratia marcescens = test: Antibacterial activity against Serratia marcescens clinical isolate by broth microdilution method
Proteus mirabilis = test: Antibacterial activity against Proteus mirabilis clinical isolate by broth microdilution method
Proteus vulgaris = test: Antibacterial activity against Proteus vulgaris clinical isolate by broth microdilution method
Morganella morganii = test: Antibacterial activity against Morganella morganii clinical isolate by broth microdilution method
Providencia rettgeri = test: Antibacterial activity against Providencia rettgeri clinical isolate by broth microdilution method
Salmonella sp. = test: Antibacterial activity against Salmonella sp. by broth microdilution method
Shigella sp. = test: Antibacterial activity against Shigella sp. by broth microdilution method
Pseudomonas aeruginosa = test: Antibacterial activity against Pseudomonas aeruginosa clinical isolate by broth microdilution method
Burkholderia cepacia = test: Antibacterial activity against Burkholderia cepacia clinical isolate by broth microdilution method
Acinetobacter sp. = test: Antibacterial activity against Acinetobacter sp. by broth microdilution method
[14] = system: Stenotrophomonas maltophilia; test: Antibacterial activity against Stenotrophomonas maltophilia clinical isolate by broth microdilution method
Legionella pneumophila = test: Antibacterial activity against Legionella pneumophila clinical isolate by broth microdilution method
Staphylococcus aureus [15] = test: Antibacterial activity against […] Staphylococcus aureus ATCC 29213 by broth microdilution method
Staphylococcus aureus [16] = test: Antibacterial activity against linezolid-resistant Staphylococcus aureus 01A1220 by broth microdilution method
Staphylococcus aureus [17] = test: Antibacterial activity against linezolid-resistant Staphylococcus aureus 01A1221 by broth microdilution method
Enterococcus faecalis [18] = test: Antibacterial activity against […] Enterococcus faecalis ATCC 29212 by broth microdilution method
Enterococcus faecalis [19] = test: Antibacterial activity against linezolid-resistant Enterococcus faecalis 03A1128 by broth microdilution method
Enterococcus faecium [20] = test: Antibacterial activity against linezolid-resistant Enterococcus faecium 03B1073 by broth microdilution method
Enterococcus faecium [21] = test: Antibacterial activity against linezolid-resistant Enterococcus faecium 03B1077 by broth microdilution method
Enterococcus faecium [22] = test: Antibacterial activity against linezolid-resistant Enterococcus faecium 03B1074 by broth microdilution method
Enterococcus faecium [23] = test: Antibacterial activity against linezolid-resistant Enterococcus faecium 03B1075 by broth microdilution method
Enterococcus faecium [24] = test: Antibacterial activity against linezolid-resistant Enterococcus faecium 03B1078 by broth microdilution method
Enterococcus faecium [25] = test: Antibacterial activity against linezolid-resistant Enterococcus faecium 03B1076 by broth microdilution method
Staphylococcus aureus [26] = test: Antibacterial activity against methicillin-resistant Staphylococcus aureus 01A1095 by broth microdilution method
Enterococcus faecium [27] = test: Antibacterial activity against vancomycin-resistant Enterococcus faecium 03B1022 by broth microdilution method
Streptococcus pyogenes [28] = test: Antibacterial activity against Streptococcus pyogenes 02C0203 by broth microdilution method
Streptococcus pneumoniae [29] = test: Antibacterial activity against Streptococcus pneumoniae 02J1046 by broth microdilution method
Staphylococcus aureus [30] = test: Bacteriostatic activity against methicillin-resistant Staphylococcus aureus 01A1095 assessed as log reduction in bacterial growth at 1 to 8 times MIC after 24 hrs
Enterococcus faecium [31] = test: Bacteriostatic activity against vancomycin resistant Enterococcus faecium 03B1022 assessed as log reduction in bacterial growth at 1 to 8 times MIC after 24 hrs
Streptococcus pyogenes [32] = test: Bacteriostatic activity against Streptococcus pyogenes 02C0203 assessed as log reduction in bacterial growth at 1 to 8 times MIC after 24 hrs
Streptococcus pneumoniae [33] = test: Bacteriostatic activity against Streptococcus pneumoniae 02J1046 assessed as log reduction in bacterial growth at 1 to 8 times MIC after 24 hrs

C/C(=C\c1cc(F)c(OC[C@H](F)C2CC2)cc1F)C(=O)N[C@@H]1[C@H](O)[C@@H](O)[C@H]2OCO[C@H]2[C@@H]1O
MIC50 (Staphylococcus aureus [1]): 0.5 µg/mL (≈ 1.06 µM) | MIC90 (Staphylococcus aureus [1]): 1 µg/mL (≈ 2.11 µM) | MIC50 (Staphylococcus aureus [2]): 0.5 µg/mL (≈ 1.06 µM) | MIC90 (Staphylococcus aureus [2]): 0.5 µg/mL (≈ 1.06 µM) | MIC (Staphylococcus aureus [3]): 0.125 µg/mL (≈ 0.264 µM) | MIC50 [4]: 0.12 µg/mL (≈ 0.253 µM) | MIC90 [4]: 0.25 µg/mL (≈ 0.528 µM) | MIC50 (Staphylococcus): 1 µg/mL (≈ 2.11 µM) | MIC90 (Staphylococcus): 2 µg/mL (≈ 4.22 µM) | MIC50 (Enterococcus faecalis [5]): 1 µg/mL (≈ 2.11 µM) | MIC90 (Enterococcus faecalis [5]): 2 µg/mL (≈ 4.22 µM) | MIC50 (Enterococcus faecalis [6]): 1 µg/mL (≈ 2.11 µM) | MIC90 (Enterococcus faecalis [6]): 2 µg/mL (≈ 4.22 µM) | MIC50 (Enterococcus faecium [7]): 1 µg/mL (≈ 2.11 µM) | MIC90 (Enterococcus faecium [7]): 2 µg/mL (≈ 4.22 µM) | MIC50 (Enterococcus faecium [8]): 1 µg/mL (≈ 2.11 µM) | MIC90 (Enterococcus faecium [8]): 2 µg/mL (≈ 4.22 µM) | MIC50 (Streptococcus pneumoniae [9]): 0.25 µg/mL (≈ 0.528 µM) | MIC90 (Streptococcus pneumoniae [9]): 0.5 µg/mL (≈ 1.06 µM) | MIC50 (Streptococcus pneumoniae [10]): 0.25 µg/mL (≈ 0.528 µM) | MIC90 (Streptococcus pneumoniae [10]): 0.5 µg/mL (≈ 1.06 µM) | MIC (Streptococcus pyogenes [11]): 0.5 µg/mL (≈ 1.06 µM) | MIC50 (Streptococcus pyogenes [11]): 0.5 µg/mL (≈ 1.06 µM) | MIC90 (Streptococcus pyogenes [11]): 1 µg/mL (≈ 2.11 µM) | MIC (Listeria monocytogenes): 4 µg/mL (≈ 8.45 µM) | MIC50 (Listeria monocytogenes): 4 µg/mL (≈ 8.45 µM) | MIC90 (Listeria monocytogenes): 8 µg/mL (≈ 16.9 µM) | MIC50 (Corynebacterium sp.): 1 µg/mL (≈ 2.11 µM) | MIC90 (Corynebacterium sp.): 1 µg/mL (≈ 2.11 µM) | MIC50 (Neisseria sp.): 4 µg/mL (≈ 8.45 µM) | MIC90 (Neisseria sp.): 8 µg/mL (≈ 16.9 µM) | MIC50 (Moraxella catarrhalis): 2 µg/mL (≈ 4.22 µM) | MIC90 (Moraxella catarrhalis): 4 µg/mL (≈ 8.45 µM) | MIC50 (Haemophilus influenzae): 4 µg/mL (≈ 8.45 µM) | MIC90 (Haemophilus influenzae): 8 µg/mL (≈ 16.9 µM) | MIC50 (Citrobacter koseri): > 64 µg/mL | MIC90 (Citrobacter koseri): > 64 µg/mL | MIC50 (Citrobacter freundii): > 64 µg/mL | MIC90 (Citrobacter freundii): > 64 µg/mL | MIC50 (Klebsiella aerogenes): > 64 µg/mL | MIC90 (Klebsiella aerogenes): > 64 µg/mL | MIC50 (Enterobacter cloacae): > 64 µg/mL | MIC90 (Enterobacter cloacae): > 64 µg/mL | MIC50 (Escherichia coli): > 64 µg/mL | MIC90 (Escherichia coli): > 64 µg/mL | MIC50 (Klebsiella oxytoca): > 64 µg/mL | MIC90 (Klebsiella oxytoca): > 64 µg/mL | MIC50 (Klebsiella pneumoniae [12]): > 64 µg/mL | MIC90 (Klebsiella pneumoniae [12]): > 64 µg/mL | MIC50 (Klebsiella pneumoniae [13]): > 64 µg/mL | MIC90 (Klebsiella pneumoniae [13]): > 64 µg/mL | MIC50 (Serratia marcescens): > 64 µg/mL | MIC90 (Serratia marcescens): > 64 µg/mL | MIC50 (Proteus mirabilis): > 64 µg/mL | MIC90 (Proteus mirabilis): > 64 µg/mL | MIC50 (Proteus vulgaris): > 64 µg/mL | MIC90 (Proteus vulgaris): > 64 µg/mL | MIC50 (Morganella morganii): > 64 µg/mL | MIC90 (Morganella morganii): > 64 µg/mL | MIC50 (Providencia rettgeri): > 64 µg/mL | MIC90 (Providencia rettgeri): > 64 µg/mL | MIC50 (Salmonella sp.): > 64 µg/mL | MIC90 (Salmonella sp.): > 64 µg/mL | MIC50 (Shigella sp.): > 64 µg/mL | MIC90 (Shigella sp.): > 64 µg/mL | MIC50 (Pseudomonas aeruginosa): > 64 µg/mL | MIC90 (Pseudomonas aeruginosa): > 64 µg/mL | MIC50 (Burkholderia cepacia): > 64 µg/mL | MIC90 (Burkholderia cepacia): > 64 µg/mL | MIC50 (Acinetobacter sp.): > 64 µg/mL | MIC90 (Acinetobacter sp.): > 64 µg/mL | MIC50 [14]: > 64 µg/mL | MIC90 [14]: > 64 µg/mL | MIC50 (Legionella pneumophila): 1 µg/mL (≈ 2.11 µM) | MIC90 (Legionella pneumophila): 2 µg/mL (≈ 4.22 µM) | MIC (Staphylococcus aureus [15]): 1 µg/mL (≈ 2.11 µM) | MIC (Staphylococcus aureus [16]): 16 µg/mL (≈ 33.8 µM) | MIC (Staphylococcus aureus [17]): 16 µg/mL (≈ 33.8 µM) | MIC (Enterococcus faecalis [18]): 1 µg/mL (≈ 2.11 µM) | MIC (Enterococcus faecalis [19]): 16 µg/mL (≈ 33.8 µM) | MIC (Enterococcus faecium [20]): 1 µg/mL (≈ 2.11 µM) | MIC (Enterococcus faecium [21]): 2 µg/mL (≈ 4.22 µM) | MIC (Enterococcus faecium [22]): 4 µg/mL (≈ 8.45 µM) | MIC (Enterococcus faecium [23]): 4 µg/mL (≈ 8.45 µM) | MIC (Enterococcus faecium [24]): 4 µg/mL (≈ 8.45 µM) | MIC (Enterococcus faecium [25]): 8 µg/mL (≈ 16.9 µM) | MIC (Staphylococcus aureus [26]): 1 µg/mL (≈ 2.11 µM) | MIC (Enterococcus faecium [27]): 1 µg/mL (≈ 2.11 µM) | MIC (Streptococcus pyogenes [28]): 0.25 µg/mL (≈ 0.528 µM) | MIC (Streptococcus pneumoniae [29]): 0.125 µg/mL (≈ 0.264 µM) | FC (Staphylococcus aureus [30]): 1.5 | FC (Enterococcus faecium [31]): 1.5 | FC (Streptococcus pyogenes [32]): 1.5 | FC (Streptococcus pneumoniae [33]): 1.5
